# ChEMBL document CHEMBL3784985, “Thiadiazole derivatives as New Class of β-glucuronidase inhibitors” (Bioorg Med Chem, 2016)
# pIC50: −log10 of the molar value.
# Molecular target: T1, Beta-glucuronidase (Bos taurus, UniProt A3KMY8)
# T1 sequence (A3KMY8 whole entry): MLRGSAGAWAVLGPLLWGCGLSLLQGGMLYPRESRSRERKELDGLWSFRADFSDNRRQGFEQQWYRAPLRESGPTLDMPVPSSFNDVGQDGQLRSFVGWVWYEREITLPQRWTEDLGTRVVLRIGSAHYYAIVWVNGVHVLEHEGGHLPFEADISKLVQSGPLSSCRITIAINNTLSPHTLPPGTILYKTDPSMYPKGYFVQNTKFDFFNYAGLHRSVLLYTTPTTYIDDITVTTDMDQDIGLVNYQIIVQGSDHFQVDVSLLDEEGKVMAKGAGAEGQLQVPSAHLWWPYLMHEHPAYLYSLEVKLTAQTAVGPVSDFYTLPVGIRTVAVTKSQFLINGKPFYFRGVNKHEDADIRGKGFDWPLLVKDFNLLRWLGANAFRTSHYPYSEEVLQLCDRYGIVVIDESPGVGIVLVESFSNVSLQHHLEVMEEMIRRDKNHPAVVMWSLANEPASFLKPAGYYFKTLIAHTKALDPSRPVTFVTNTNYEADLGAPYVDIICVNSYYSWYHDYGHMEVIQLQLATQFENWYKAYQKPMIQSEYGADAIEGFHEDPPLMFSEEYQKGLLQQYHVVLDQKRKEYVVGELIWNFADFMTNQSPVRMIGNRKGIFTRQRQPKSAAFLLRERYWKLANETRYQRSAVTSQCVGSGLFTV
# Test: Inhibition of bovine beta-glucuronidase assessed as p-nitrophenol formation preincubated for 30 mins followed by addition of p-nitrophenyl-beta-D-glucuronide by spectrophotometric analysis
row,pIC50,SMILES
1,4.49,CC(C)(C)c1ccc(-c2nnc(Nc3ccc(Br)cc3)s2)cc1
2,4.30,COc1cc(OC)cc(-c2nnc(Nc3ccc(C)cc3)s2)c1
3,4.51,COc1cccc(Nc2nnc(-c3ccc(Br)cc3)s2)c1
4,4.53,COc1ccc(-c2nnc(Nc3ccc(Br)cc3)s2)c(OC)c1
5,5.15,Clc1ccc(Nc2nnc(-c3ccc(Br)cc3)s2)cc1Cl
6,4.41,COc1ccc(-c2nnc(Nc3ccc(C)cc3)s2)c(OC)c1
7,4.40,Brc1ccc(-c2nnc(Nc3ccccc3)s2)cc1
8,4.58,Cc1ccc(Nc2nnc(-c3ccc(C(C)(C)C)cc3)s2)cc1
9,4.32,Cc1ccc(Nc2nnc(-c3ccccc3)s2)cc1
10,4.31,COc1ccccc1-c1nnc(Nc2cccc(Br)c2)s1
11,4.65,COc1ccc(Nc2nnc(-c3ccccc3Cl)s2)cc1
12,4.24,COc1ccccc1-c1nnc(Nc2ccc(C)cc2)s1
13,4.81,Cc1ccc(-c2nnc(Nc3ccc(Cl)c(Cl)c3)s2)c(C)c1
14,4.78,Cc1ccc(Nc2nnc(-c3ccccc3Cl)s2)cc1
15,4.76,Brc1ccc(-c2nnc(Nc3cccc(Br)c3)s2)cc1
16,4.54,Cc1ccc(Nc2nnc(-c3ccc(Br)cc3)s2)cc1
17,5.05,Clc1ccccc1-c1nnc(Nc2cccc(Br)c2)s1
18,5.20,Clc1ccc(Nc2nnc(-c3ccccc3)s2)cc1Cl
19,4.44,Cc1ccc(-c2nnc(Nc3cccc(Br)c3)s2)c(C)c1
20,4.47,Cc1ccc(Nc2nnc(-c3ccc(C)cc3C)s2)cc1
21,4.72,COc1cc(OC)cc(-c2nnc(Nc3ccc(Cl)c(Cl)c3)s2)c1
22,4.65,COc1ccccc1-c1nnc(Nc2ccc(Cl)c(Cl)c2)s1
